In experiment [1] the target is recombinant GluN1/GluN2B receptors. Particulars: recombinant GluN1/GluN2B in X. laevis oocytes, electrophysiology; cited from earlier work.
Experiment [2] addresses native GluN2B‐containing NMDA receptors (Gallus gallus, UniProt F1NMB0+Q4KXT1). Kind of experiment: Calcium influx measurement (Fura-2) in E10 chicken embryo forebrain cell culture at DIV1, induced with NMDA and glycine. Type of experiment: cell-based, chicken (Gallus gallus). To be noted: for EC50: primary cultures from chicken embryo forebrain (E10), read-out: EC50, inhibition of calcium influx; for Emax: read-out: calcium influx blocked. On the procedure: The eggs were submerged in crushed ice for 7 minutes to anesthetize the embryos before decapitation. The forebrain was surgically removed, and the meninges were discarded. The tissue was homogenized by chopping with a scalpel before trypsination in buffered solutions as previously described.30, 31 Cells were suspended in DMEM supplemented with 1% N‐2, 100 U/mL penicillin and 0.1 mg/mL streptomycin (Pen‐Strep), 10% fetal bovine serum (FBS), and 0.75% GlutaMAX™. Cells were seeded (1.7 × 10^6 cells/mL) on 35 mm Petri dishes or in 96‐well plates (Corning® CellBIND® 96 well plates; Merck) precoated with poly‐L‐lysine, and incubated at 37°C, with 5% CO2. These cultures contain an abundance of functional GluN2B receptors on DIV1 (A. Ring, pers. commun.).
Fura‐2 fluorescence was measured using CLARIOstar® plate reader (BMG Labtech, Germany). Intracellular Ca^2+ changes were expressed as changes in 340/380 nm fluorescence emission ratio. The wash buffer was then carefully replaced with test compound (20 nmol/L to 10 μmol/L) in standard buffer (n = 4 per concentration, two compounds per 96‐well plate). NMDA receptor‐mediated Ca^2+ influx was induced by NMDA (0.2 mmol/L) and glycine (0.1 mmol/L) in each well. The resulting rise in intracellular Ca^2+ was expressed as a change in the 340/380 emission ratio by subtracting the initial Ca^2+ level from the NMDA stimulated Ca^2+ responses. […] Inhibition curves for each compound were established by dose response experiments (n ≥ 5). For Ro 04‐5595, four representative IC50 values were chosen to make Figure 2A, while 13 experiments around the median were chosen for Figure 2C.

Experiment [3] has as its target recombinant GluN1/GluN2B receptors. Details: method as in PMID 22197913. To be noted: recombinant GluN1/GluN2B in X. laevis oocytes, electrophysiology; cited from earlier work.
The mark [4] stands for this setting: E10 chicken forebrain cell culture at DIV 1, NMDA 200 and glycine 100 μmol/L, Fura-2, read-out: IC50 Chicken (present work).
[5] abbreviates: maximal block by GluN2B-specific allosteric antagonists, chicken forebrain culture.

Where two headings read alike, the source gives them in different places.

Sequence of native GluN2B‐containing NMDA receptors (F1NMB0 entry or part of it, other chains not shown): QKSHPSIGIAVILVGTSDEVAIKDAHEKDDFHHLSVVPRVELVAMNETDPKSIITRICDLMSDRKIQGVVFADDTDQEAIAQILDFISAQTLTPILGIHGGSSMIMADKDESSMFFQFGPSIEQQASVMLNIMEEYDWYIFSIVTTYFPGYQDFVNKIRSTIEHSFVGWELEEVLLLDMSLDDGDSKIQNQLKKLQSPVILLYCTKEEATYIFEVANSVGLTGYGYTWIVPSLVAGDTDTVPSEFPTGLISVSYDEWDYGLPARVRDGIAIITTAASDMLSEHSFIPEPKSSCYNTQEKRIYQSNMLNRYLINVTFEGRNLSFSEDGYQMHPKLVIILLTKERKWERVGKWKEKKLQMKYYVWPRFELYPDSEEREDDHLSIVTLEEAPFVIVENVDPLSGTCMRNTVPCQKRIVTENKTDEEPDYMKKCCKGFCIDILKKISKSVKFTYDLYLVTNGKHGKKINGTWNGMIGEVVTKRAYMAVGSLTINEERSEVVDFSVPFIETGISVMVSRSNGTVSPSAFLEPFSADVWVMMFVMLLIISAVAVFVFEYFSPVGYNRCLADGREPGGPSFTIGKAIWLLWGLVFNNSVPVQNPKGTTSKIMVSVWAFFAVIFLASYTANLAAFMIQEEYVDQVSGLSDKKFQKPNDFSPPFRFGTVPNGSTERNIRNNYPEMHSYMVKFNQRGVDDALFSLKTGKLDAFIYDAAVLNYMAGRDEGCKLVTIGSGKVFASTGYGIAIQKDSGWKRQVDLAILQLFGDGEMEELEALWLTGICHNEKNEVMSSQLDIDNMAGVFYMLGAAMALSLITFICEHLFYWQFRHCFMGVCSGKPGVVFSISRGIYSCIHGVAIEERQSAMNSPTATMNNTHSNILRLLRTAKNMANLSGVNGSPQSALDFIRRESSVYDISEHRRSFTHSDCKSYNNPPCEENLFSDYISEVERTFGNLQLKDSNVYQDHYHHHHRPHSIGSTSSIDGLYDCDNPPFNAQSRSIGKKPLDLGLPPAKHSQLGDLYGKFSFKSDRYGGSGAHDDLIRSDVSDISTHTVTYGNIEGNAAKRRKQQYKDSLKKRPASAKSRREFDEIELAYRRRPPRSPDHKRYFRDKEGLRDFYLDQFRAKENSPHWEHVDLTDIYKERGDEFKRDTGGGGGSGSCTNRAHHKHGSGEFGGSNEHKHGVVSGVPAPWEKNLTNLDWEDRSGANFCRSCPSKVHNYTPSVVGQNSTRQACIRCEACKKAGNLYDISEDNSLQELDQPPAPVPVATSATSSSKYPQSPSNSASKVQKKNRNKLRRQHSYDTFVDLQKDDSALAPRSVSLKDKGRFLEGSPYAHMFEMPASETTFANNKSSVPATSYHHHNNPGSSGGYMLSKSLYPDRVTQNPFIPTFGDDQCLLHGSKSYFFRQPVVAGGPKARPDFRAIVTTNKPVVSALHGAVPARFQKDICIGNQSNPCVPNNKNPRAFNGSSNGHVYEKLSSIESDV

Consider `Cc1nccn1Cc1cc(-c2ccc(F)c(C(F)F)c2)cnn1.Cl.Cl` [EVT‐101], for which the IC50 in experiment [1] was 12 ± 0.2 nM; in experiment [2] (setting [4]), 22 ± 8 nM. In experiment [2] (setting [5]), the calcium influx blocked result is “approximately 70%”. Moreover, in experiment [2], the EC50 turned out to be 22 ± 8 nM.

As for `OC(CN1CCC(Cc2ccc(F)cc2)CC1)c1ccc(Cl)cc1` (stereo not shown) [Eliprodil, eliprodil], the IC50 in experiment [1] was 780 ± 90 nM; in experiment [2] (setting [4]), 1260 ± 683 nM; in experiment [3], 930 ± 140 nM. Besides, in experiment [2] (setting [5]), the Emax is ~70%. Moreover, the EC50 in experiment [2] was 1300 ± 700 nM.

For the compound `CC(C(O)c1ccc(O)cc1)N1CCC(Cc2ccccc2)CC1` (stereo not shown) [Ifenprodil, ifenprodil], the half-maximal inhibitory concentration (IC50) in experiment [1] was 110 ± 10 nM; in experiment [2] (setting [4]), 103 ± 39 nM; in experiment [3] it was 130 ± 10 nM. For the same compound, the half-maximal effective concentration (EC50) in experiment [2] was determined as 100 ± 40 nM. For the same compound, the Emax in experiment [2] was ~70%.

Regarding `COc1cc2c(cc1O)C(CCc1ccc(Cl)cc1)N(C)CC2` (stereo not shown) [Ro 04‐5595], the IC50 in experiment [2] (setting [4]) is 186 ± 35 nM; in experiment [2] (chicken forebrain culture calcium influx assay, read-out: IC50 value), < 200 nM. Besides, the EC50 in experiment [2] came to 186 ± 32 nM.

For the compound `C[C@@H]([C@H](O)c1ccc(O)cc1)N1CCC(Cc2ccccc2)CC1` [Ro 25‐6981], the half-maximal inhibitory concentration (IC50) is 42 ± 6 nM in experiment [1], 60 ± 27 nM in experiment [2] (setting [4]) and 49 ± 8 nM in experiment [3]. In addition, the calcium influx blocked result in experiment [2] (setting [5]) is listed as “approximately 70%”. In experiment [2], the 50% effective concentration (EC50) is 60 ± 30 nM.

These data come from PMC6543015, “Exploring the overlapping binding sites of ifenprodil and EVT‐101 in GluN2B‐containing NMDA receptors using novel chicken embryo forebrain cultures and molecular modeling” (Pharmacology Research & Perspectives, 2019).
